Experimental data from article PMC6737077, “DFMD: Fast and Effective DelPhiForce Steered Molecular Dynamics Approach to Model Ligand Approach Toward a Receptor: Application to Spermine Synthase Enzyme” (Frontiers in Molecular Biosciences, 2019).
Numbering of substitutions follows the chain as printed.

Experiments:
Assay in all cases: intrinsic protein fluorescence titration (ex […] nm, em […]-345 nm)
Format in all cases: binding
[1] = target: T1, human spermine synthase (SpmSyn) (Homo sapiens, UniProt P52788)
T1 construct: gene SMS; wild-type human SpmSyn expression construct of Wu et al. 2008; expressed in E. coli Rosetta 2, purified; homo-dimer
T1 sequence (P52788 2-366): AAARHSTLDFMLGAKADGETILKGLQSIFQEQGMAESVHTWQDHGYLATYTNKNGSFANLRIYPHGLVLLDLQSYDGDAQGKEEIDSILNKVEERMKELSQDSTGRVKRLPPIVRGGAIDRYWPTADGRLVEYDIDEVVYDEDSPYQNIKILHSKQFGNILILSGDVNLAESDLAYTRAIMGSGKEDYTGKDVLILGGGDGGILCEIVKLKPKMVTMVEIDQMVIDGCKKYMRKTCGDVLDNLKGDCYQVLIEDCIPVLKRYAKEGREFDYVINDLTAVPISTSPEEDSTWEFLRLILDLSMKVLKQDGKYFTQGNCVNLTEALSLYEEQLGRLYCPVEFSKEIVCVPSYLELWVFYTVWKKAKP

[2] = target: T2, human spermine synthase (SpmSyn) (Homo sapiens, UniProt P52788, G56S)
T2 construct: gene SMS; wild-type human SpmSyn expression construct of Wu et al. 2008; expressed in E. coli Rosetta 2, purified; homo-dimer
T2 sequence (P52788 2-366 G56S): T1 sequence (P52788 2-366) with G55S

[3] = target: T3, human spermine synthase (SpmSyn) (Homo sapiens, UniProt P52788, D201A)
T3 construct: gene SMS; wild-type human SpmSyn expression construct of Wu et al. 2008; expressed in E. coli Rosetta 2, purified; homo-dimer
T3 sequence (P52788 2-366 D201A): T1 sequence (P52788 2-366) with D200A

Kd [1]: 272 ± 24 µM
Kd [2]: 410 ± 57 µM
Kd [3]: 1020 ± 69 µM
Structure (SMILES): C[S+](CC[C@H](N)C(=O)O)C[C@H]1O[C@@H](n2cnc3c(N)ncnc32)[C@H](O)[C@@H]1O (stereo partly drawn) [AdoMet]
